Test results from article PMC4921109 (Cancer Chemotherapy and Pharmacology, 2016).
“Also recorded” adds a separate entry of the source. Where two headings read alike, the source gives them in different places.

How the values were obtained:
[1] = cited from earlier work
[2] = cited from earlier work; remark: listed apart in the source
[3] = Phase Ib drug–drug interaction study: safety and tolerability (adverse events); type: in vivo, human
From the text: This was a phase Ib, open-label, four-arm, parallel design, multicenter, multiple-dose study in healthy female subjects of non-childbearing potential. Subjects were randomly assigned to 1 of 4 treatment arms in a 1:1:1:1 ratio with stratification according to AAG concentration [low (0.5–0.73 g/L), medium (0.74–0.96 g/L), or high (0.97–1.2 g/L)].

P-glycoprotein (P-gp) = conditions: MDCK cells overexpressing P-gp; cited from earlier work
[4] = vismodegib; ANOVA, back-transformed; day 7 (day 11 in Arm B)
[5] = set-up: method as in PMID 19845436; conditions: cited from earlier work
[6] = unbound vismodegib; geometric mean (CV %); 2, 6 and 12 h postdose on day 7 (day 11 in Arm B); vismodegib 150 mg QD
Experimental: PK parameters were calculated using noncompartmental methods with WinNonlin (Pharsight Corporation, Mountain View, CA; Version 5.2); the PK analysis used actual times as recorded on the case report form.

clinical = conditions: female, human, plasma, po, 150 mg
Caco-2 cells = conditions: cited from earlier work
CYP2C9 and CYP3A4 = conditions: cited from earlier work
[7] = cited from earlier work; remark: listed apart in the source
human hepatocytes = tested on: human hepatocytes; set-up: method as in PMID 19845436; conditions: 3-h incubation with human hepatocytes; cited from earlier work
[8] = number of subjects (percent), safety population

For `CC(=O)N1CCN(c2ccc(OCC3COC(Cn4ccnc4)(c4ccc(Cl)cc4Cl)O3)cc2)CC1` (centres unmarked) [ketoconazole], the “Impairment of absorption by acid-reducing agents” value [1] is listed as “more than 90%”.

In the case of `CS(=O)(=O)c1ccc(C(=O)Nc2ccc(Cl)c(-c3ccccn3)c2)c(Cl)c1` [Vismodegib, 2-chloro-N-(4-chloro-3-(pyridin-2-yl)phenyl)-4-(methylsulfonyl) benzamide], the “Decrease in solubility from pH 2 to 7” value [2] is listed as 10,000 fold, the “Most frequent AEs related to vismodegib: constipation” value ([3]; across the study) is listed as 10.5% and the “Most frequent AEs related to vismodegib: diarrhea” value ([3]; across the study) is listed as 8.0%. For the same compound, the “Most frequent AEs related to vismodegib: headache” value ([3]; across the study) was 10.5%, the “Most frequent AEs related to vismodegib: nausea” value ([3]; across the study) was 9.3% and the “Treatment-emergent AE: Abdominal distention” value [3, 8] was 1 (4.5). For the same compound, the “Treatment-emergent AE: Abdominal pain” value [3, 8] was 1 (4.5), the “Treatment-emergent AE: Constipation” value [3, 8] was 4 (18.2) and the “Treatment-emergent AE: Diarrhea” value [3, 8] was 1 (4.5). For the same compound, the “Treatment-emergent AE: Dizziness” value [3, 8] was 2 (9.1), the “Treatment-emergent AE: Flatulence” value [3, 8] was 1 (4.5) and the “Treatment-emergent AE: Headache” value [3, 8] was 4 (18.2). For the same compound, the “Treatment-emergent AE: Nausea” value [3, 8] was 2 (9.1), the “Treatment-emergent AE: Pruritus” value [3, 8] was 0 and the “Treatment-emergent AE: Rash” value [3, 8] was 0. For the same compound, the “Number of treatment-emergent AEs considered related to vismodegib” value ([3]; of the 127 treatment-emergent AEs) was 92, the P-gp substrate status (P-glycoprotein (P-gp)) was “weak substrate of P-gp; also recorded: P-glycoprotein (P-gp) substrate” and the “Geometric LS mean of AUC0–24h at steady state” value [4] was 402 µM·h. For the same compound, the “Predicted preclinical efficacious levels (unbound concentration range required for efficacy)” value [5] was 0.042 to 0.068 µM, the “Css,ave,u (average unbound plasma concentration at steady state)” value [6] was 0.150 (50.2) µmol/L and the AUC(0-t) (clinical) was 140 µM·h. The Cmax (clinical) was 7 µM, the Tmax (clinical) was 6 h and the Permeability (Caco-2 cells) was “high permeability”. For the same compound, the Metabolizing enzymes (CYP2C9 and CYP3A4) was “primarily metabolized by CYP2C9 and CYP3A4”, the “Absolute bioavailability at steady state” value [7] was “less than 10%” and the “Change in steady-state plasma concentrations with dose” value ([7]; daily dose increased from 150 to 270 or 540 mg) was “no increase”. For the same compound, the “Increase in total clearance with multiple dosing” value ([7]; healthy subjects) was 81%, the “Oral steady-state AUC0–24h after multiple dosing compared with AUC from zero to infinity after a single dose” value ([7]; healthy subjects) was “approximately eightfold lower” and the “PK variability explained by AAG levels” value ([7]; patients) was greater than 70%. For the same compound, the “PK variability explained by AAG levels” value ([7]; ref data on file) was greater than 70%, the Terminal elimination half-life ([7]; single dose) was 288 h and the Parent remaining (human hepatocytes) was 96%.

In the case of `COC(=O)N[C@H](C(=O)N[C@@H](Cc1ccccc1)[C@@H](O)CN(Cc1ccc(-c2ccccn2)cc1)NC(=O)[C@@H](NC(=O)OC)C(C)(C)C)C(C)(C)C` [atazanavir], the “Change in bioavailability on co-administration of the PPI lansoprazole” value [1] is given as “large reduction”.
